In test [1] the target is T1, PRMT5 (Homo sapiens, UniProt O14744).
T1 construct: purchased Viva (custom protein)
Nature of the test: PRMT5 inhibition assay with no cofactor. The note with it: against PRMT5 with no cofactor; read-out: No Co-factor IC50. It counts as biochemical.

For test [2], the target named is T1, PRMT5. The test is described as follows: PRMT5 inhibition assay with MTA as cofactor. It counts as biochemical. As to conditions: against PRMT5 with MTA as cofactor. From the text: The Ki values can be calculated from the IC50 values as described in the Examples section. As detailed in the Examples section, for the assay performed in the presence of SAM, IC50=Ki×1.5 (Ki=IC50/1.5). For the assay performed in the presence of MTA, IC50=Ki×13.5 (Ki=IC50/13.5). Column 6 indicates the ratio between the Ki of compounds in the presence of SAM and the Ki of compounds in the presence of MTA

Test [3] concerns HAP1 MTAP-intact cell line. Nature of the test: SDMA in-cell western assay, HAP1 MTAP-intact. The class given is cell-based. As to conditions: Homo sapiens. The protocol:
(§1) Table 1 also indicates IC50 values in an MTAP-isogenic cell line pair for exemplary compounds in an SDMA in-cell western assay (columns 7-8). HAP1 MTAP-intact is a cell line in which endogenous levels of MTAP are expressed, and HAP1 MTAP-deleted is an MTAP-null cell line. For Table 1, “a*” and “aa*” indicates an IC50 of <1 μM, “b*” and “bb*” indicates an IC50 equal to or greater than 1 μM but less than 10 μM, and “c*” and “cc*” indicates an IC50 of greater than or equal to 10 μM in the HAP1 MTAP-intact and the HAP1 MTAP-deleted assays, respectively. In column 9, “A*” indicates an IC50 ratio greater than or equal to 10 fold between the IC50 in the HAP1 MTAP-intact cell line and the HAP1 MTAP-deleted cell line; “B*” indicates an IC50 ratio greater than or equal to 3 fold but lower than 10 fold between the IC50 in the HAP1 MTAP-intact cell line and the HAP1 MTAP-deleted cell line; “C*” indicates an IC50 ratio of less than 3 fold between the IC50 in the HAP1 MTAP-intact cell line and the HAP1 MTAP-deleted cell line. Compounds with a ratio in the SDMA in-cell western assay of equal to or greater than 3 fold are considered MTAP-selective.

Test [4] deals with HAP1 MTAP-deleted cell line. Nature of the test: SDMA in-cell western assay, HAP1 MTAP-deleted. As to conditions: for IC50: Homo sapiens, HAP1 MTAP-deleted (MTAP-null) cell line; for MTAP Intact/Deleted Ratio: IC50 ratio HAP1 MTAP-intact / HAP1 MTAP-deleted, >=3 fold considered MTAP-selective. The class given is cell-based. The protocol: as §1

One may read the IC50 as the concentration needed to halve the response being measured.

T1 sequence (O14744 whole entry): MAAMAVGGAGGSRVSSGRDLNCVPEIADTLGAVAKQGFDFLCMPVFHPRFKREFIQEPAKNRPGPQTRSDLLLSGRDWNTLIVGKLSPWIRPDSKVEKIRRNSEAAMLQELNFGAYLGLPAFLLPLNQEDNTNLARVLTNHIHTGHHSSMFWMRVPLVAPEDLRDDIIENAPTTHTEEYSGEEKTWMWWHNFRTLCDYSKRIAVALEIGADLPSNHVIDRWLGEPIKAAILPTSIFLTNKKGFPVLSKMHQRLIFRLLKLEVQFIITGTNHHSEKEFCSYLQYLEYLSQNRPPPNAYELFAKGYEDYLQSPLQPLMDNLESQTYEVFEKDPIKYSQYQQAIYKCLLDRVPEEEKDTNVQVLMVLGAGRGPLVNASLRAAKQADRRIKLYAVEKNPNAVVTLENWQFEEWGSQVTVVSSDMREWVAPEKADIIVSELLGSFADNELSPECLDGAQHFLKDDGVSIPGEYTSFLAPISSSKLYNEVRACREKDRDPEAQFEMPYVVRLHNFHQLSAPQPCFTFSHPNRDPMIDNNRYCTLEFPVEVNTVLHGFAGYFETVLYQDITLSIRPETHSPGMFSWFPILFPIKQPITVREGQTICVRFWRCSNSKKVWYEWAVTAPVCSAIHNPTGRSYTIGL
T1 sequence (Q9BQA1 whole entry partner): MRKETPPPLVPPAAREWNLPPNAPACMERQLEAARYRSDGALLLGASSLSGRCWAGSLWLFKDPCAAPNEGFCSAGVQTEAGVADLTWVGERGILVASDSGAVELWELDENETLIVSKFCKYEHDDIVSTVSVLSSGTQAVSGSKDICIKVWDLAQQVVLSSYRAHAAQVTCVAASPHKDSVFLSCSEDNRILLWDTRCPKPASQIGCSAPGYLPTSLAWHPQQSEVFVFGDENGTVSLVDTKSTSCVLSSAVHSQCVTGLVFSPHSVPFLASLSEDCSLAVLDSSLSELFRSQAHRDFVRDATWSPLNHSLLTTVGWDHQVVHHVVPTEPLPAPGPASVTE

In the case of `CC(=O)N1CC(Nc2cc(C(=O)NCC[C@H]3Cc4ccc(OCc5ocnc5C)cc4CN3)nc(N3CCCCC3)n2)C1` (single isomer, unassigned) [83**], the concentration for half-maximal inhibition (IC50) is 0.05 to 0.5 µM on PRMT5 [1] and less than 0.05 µM against PRMT5 [2].

Turning to `CC(=O)N1CC(Nc2cc(C(=O)NCC[C@@H]3Cc4ccc(OCc5ocnc5C)cc4CN3)nc(N3CCCCC3)n2)C1` (single isomer, unassigned) [85**], the IC50 lay in the range of 0.5 to 5 µM at PRMT5 [1] and 0.05 to 0.5 µM against PRMT5 [2].

Turning to `Cn1nccc1COc1ccc2c(c1)CN[C@H]([C@H](O)CNC(=O)c1ccnc(NC3CCC3)c1)C2` [Compound 14, 2-(cyclobutylamino)-N—((R)-2-hydroxy-2-((S)-7-((1-methyl-1H-pyrazol-5-yl)methoxy)-1,2,3,4-tetrahydroisoquinolin-3-yl)ethyl)isonicotinamide], the values for the 50% inhibitory concentration (IC50) in test [3] and in test [4] were no less than 10 µM and less than 1 µM, respectively.

Take `Cc1ncoc1COc1ccc2c(c1)CN[C@H]([C@H](O)CNC(=O)c1ccnc(NC3CCC3)c1)C2` [Compound 15, 2-(cyclobutylamino)-N—((R)-2-hydroxy-2-((S)-7-((4-methyloxazol-5-yl)methoxy)-1,2,3,4-tetrahydroisoquinolin-3-yl)ethyl)isonicotinamide]: the IC50 was no less than 10 µM in test [3] and less than 1 µM in test [4].

With `O=C(NC[C@@H](O)[C@@H]1Cc2ccc(OCc3cnco3)cc2CN1)c1ccnc(NC2CCC2)c1` [Compound 19, 2-(cyclobutylamino)-N—((R)-2-hydroxy-2-((S)-7-(oxazol-5-ylmethoxy)-1,2,3,4-tetrahydroisoquinolin-3-yl)ethyl)isonicotinamide], the values for the IC50 in test [3] and in test [4] were no less than 10 µM and 1 to 10 µM, respectively.

Consider `CC(=O)N1CC(Nc2cc(C(=O)NC[C@@H](O)[C@@H]3Cc4ccc(OCc5ocnc5C)cc4CN3)nc(N3CCCCC3)n2)C1` [Compound 22, 6-((1-acetylazetidin-3-yl)amino)-N—((R)-2-hydroxy-2-((S)-7-((4-methyloxazol-5-yl)methoxy)-1,2,3,4-tetrahydroisoquinolin-3-yl)ethyl)-2-(piperidin-1-yl)pyrimidine-4-carboxamide], for which the half-inhibitory concentration (IC50) was 1 to 10 µM in test [3] and less than 1 µM in test [4].

Turning to `CC(=O)N1CC2(CC(Nc3cc(C(=O)NC[C@@H](O)[C@@H]4Cc5ccc(OCc6ocnc6C)cc5CN4)nc(N4CCCCC4)n3)C2)C1` [Compound 48, 6-[(2-acetyl-2-azaspiro[3.3]heptan-6-yl)amino]-N-[(2R)-2-hydroxy-2-[(3S)-7-[(4-methyloxazol-5-yl)methoxy]-1,2,3,4-tetrahydroisoquinolin-3-yl]ethyl]-2-(1-piperidyl)pyrimidine-4-carboxamide], the IC50 in test [3] and in test [4] was less than 1 µM throughout.

For the compound `CC(=O)N1CC(Nc2cc(C(=O)NC[C@@H](O)[C@@H]3Cc4ccc(OCc5ocnc5C)cc4CN3)nc(N3CCC(C)CC3)n2)C1` [Compound 62, 6-[(1-acetylazetidin-3-yl)amino]-N-[(2R)-2-hydroxy-2-[(3S)-7-[(4-methyloxazol-5-yl)methoxy]-1,2,3,4-tetrahydroisoquinolin-3-yl]ethyl]-2-(4-methyl-1-piperidyl)pyrimidine-4-carboxamide], the figures for the half-inhibitory concentration (IC50) in test [3] and in test [4] were 1 to 10 µM and less than 1 µM, respectively.

With `CC(=O)N1CC(Nc2cc(C(=O)NC[C@H](O)[C@@H]3Cc4ccc(OCc5ocnc5C)cc4CN3)nc(N3CCCCC3)n2)C1` [Compound 64], in test [4], the IC50 was in the range of 1 to 10 µM.

In the case of `Cc1ncoc1COc1cc2c(cc1F)C[C@@H]([C@H](O)CNC(=O)c1ccnc(NC3CCC3)c1)NC2` [Compound 65, 2-(cyclobutylamino)-N-[(2R)-2-[(3S)-6-fluoro-7-[(4-methyloxazol-5-yl)methoxy]-1,2,3,4-tetrahydroisoquinolin-3-yl]-2-hydroxy-ethyl]pyridine-4-carboxamide], the half-maximal inhibitory concentration (IC50) was 0.5 to 5 µM at PRMT5 [1], less than 0.05 µM at PRMT5 [2], no less than 10 µM in test [3] and less than 1 µM in test [4]. Besides, in test [4], the “MTAP Intact/Deleted Ratio” value is “A* (an IC50 ratio greater than or equal to 10 fold between the IC50 in the HAP1 MTAP-intact cell line and the HAP1 MTAP-deleted cell line)”.

In the case of `COCCN(C)c1cc(C(=O)NC[C@@H](O)[C@@H]2Cc3ccc(OCc4ocnc4C)cc3CN2)cc(NC2CCN(C(C)=O)CC2)n1` [Compound 66], the IC50 was 0.05 to 0.5 µM at PRMT5 [1], less than 0.05 µM against PRMT5 [2], no less than 10 µM in test [3] and less than 1 µM in test [4]. Besides, the “MTAP Intact/Deleted Ratio” value in test [4] is “A* (an IC50 ratio greater than or equal to 10 fold between the IC50 in the HAP1 MTAP-intact cell line and the HAP1 MTAP-deleted cell line)”.

On to `CC(=O)N1CC(Nc2cc(C(=O)NC[C@@H](O)[C@@H]3Cc4ccc(OCc5ocnc5C)cc4CN3)cc(N3CCN(C(C)C)CC3)n2)C1` [Compound 67], for which the IC50 on PRMT5 [1] was 0.05 to 0.5 µM; on PRMT5 [2], less than 0.05 µM; in test [3], no less than 10 µM; in test [4], 1 to 10 µM. For the same compound, the “MTAP Intact/Deleted Ratio” value in test [4] was “C* (an IC50 ratio of less than 3 fold between the IC50 in the HAP1 MTAP-intact cell line and the HAP1 MTAP-deleted cell line)”.

Regarding `COCCN(C)c1cc(C(=O)NC[C@@H](O)[C@@H]2Cc3ccc(OCc4ocnc4C)cc3CN2)cc(NC2CC3(CCC3)C2)n1` [Compound 68], the IC50 on PRMT5 [1] was 0.05 to 0.5 µM; against PRMT5 [2] it was less than 0.05 µM; in test [3], 1 to 10 µM; in test [4], less than 1 µM. Also, the “MTAP Intact/Deleted Ratio” value in test [4] is “A* (an IC50 ratio greater than or equal to 10 fold between the IC50 in the HAP1 MTAP-intact cell line and the HAP1 MTAP-deleted cell line)”.

Regarding `COCCN(C)c1cc(C(=O)NC[C@@H](O)[C@@H]2Cc3ccc(OCc4ocnc4C)cc3CN2)cc(NC2CN(C(C)=O)C2)n1` [Compound 69], the IC50 is 0.05 to 0.5 µM on PRMT5 [1], less than 0.05 µM on PRMT5 [2], no less than 10 µM in test [3] and 1 to 10 µM in test [4]. Moreover, the “MTAP Intact/Deleted Ratio” value in test [4] is “C* (an IC50 ratio of less than 3 fold between the IC50 in the HAP1 MTAP-intact cell line and the HAP1 MTAP-deleted cell line)”.

As for `CCOc1cc(C(=O)N2C3CCC2COC3)ccc1C(=O)NC[C@@H](O)[C@@H]1Cc2ccc(OCc3ccncc3)cc2CN1` [Compound 73, 2-ethoxy-N-[(2R)-2-hydroxy-2-[(3S)-7-(4-pyridylmethoxy)-1,2,3,4-tetrahydroisoquinolin-3-yl]ethyl]-4-(3-oxa-8-azabicyclo[3.2.1]octane-8-carbonyl)benzamide], the concentration for half-maximal inhibition (IC50) at PRMT5 [1] was no less than 5 µM; against PRMT5 [2] it was 0.05 to 0.5 µM; in test [4], 1 to 10 µM.

In the case of `COc1ccc(C(=O)N2CCc3cc(C(=O)NC[C@@H](O)[C@@H]4Cc5ccc(OCc6cnco6)cc5CN4)ccc3C2)cc1` [Compound 74, N-[(2R)-2-hydroxy-2-[(3S)-7-(oxazol-5-ylmethoxy)-1,2,3,4-tetrahydroisoquinolin-3-yl]ethyl]-2-(4-methoxybenzoyl)-3,4-dihydro-1H-isoquinoline-6-carboxamide], the IC50 was 0.05 to 0.5 µM at PRMT5 [1], less than 0.05 µM at PRMT5 [2] and less than 1 µM in test [4].

Consider `CCOc1cc(C(=O)N2C3CCC2COC3)ccc1C(=O)NC[C@@H](O)[C@@H]1Cc2ccc(OCc3ccn[nH]3)cc2CN1` [Compound 76, 2-ethoxy-N-[(2R)-2-hydroxy-2-[(3S)-7-(1H-pyrazol-5-ylmethoxy)-1,2,3,4-tetrahydroisoquinolin-3-yl]ethyl]-4-(3-oxa-8-azabicyclo[3.2.1]octane-8-carbonyl)benzamide], for which the IC50 on PRMT5 [1] was 0.5 to 5 µM; at PRMT5 [2], 0.05 to 0.5 µM; in test [3], no less than 10 µM.

`COc1ccc(C(=O)N2CCc3cc(C(=O)NC[C@@H](O)[C@@H]4Cc5ccc(OCc6ccnn6C)cc5CN4)ccc3C2)cc1` [Compound 77, N-[(2R)-2-hydroxy-2-[(3S)-7-[(2-methylpyrazol-3-yl)methoxy]-1,2,3,4-tetrahydroisoquinolin-3-yl]ethyl]-2-(4-methoxybenzoyl)-3,4-dihydro-1H-isoquinoline-6-carboxamide]: the IC50 is 0.5 to 5 µM on PRMT5 [1], less than 0.05 µM at PRMT5 [2] and 1 to 10 µM in test [3].

Consider `COCCN(C)c1nc(NC2CC3(CCC3)C2)cc(C(=O)NC[C@@H](O)[C@@H]2Cc3ccc(OCc4ocnc4C)cc3CN2)n1` [Compound 80], for which the figures for the IC50 in test [3] and in test [4] were 1 to 10 µM and less than 1 µM, respectively.

Consider `Cc1ncoc1COc1ccc2c(c1)CN[C@H]([C@H](O)CNC(=O)c1cc(NC3CC4(CCC4)C3)nc(N3CCN(C(=O)C4CC4)CC3)n1)C2` [Compound 84], for which the half-inhibitory concentration (IC50) at PRMT5 [1] and against PRMT5 [2] was less than 0.05 µM in each case.

Regarding `Cc1ncoc1COc1ccc2c(c1)CN[C@H]([C@H](O)CNC(=O)c1cc(NC3CC4(CCC4)C3)nc(N3CCN(C(C)C)CC3)n1)C2` [Compound 86], the IC50 at PRMT5 [1] and at PRMT5 [2] was less than 0.05 µM throughout.

Values taken from patent publication US12403137B2, “Compounds and methods of use” (Tango Therapeutics, Inc., priority 2019, dated 2025).
